Experimental data as given in patent US4377687A, “Analogs of 1-(2-chloroethyl)-1-nitroso-3-(cycloheyl)-urea substituted by heterocyclic rings or alkyl radicals” (Stiftung Deutsches Krebsforschungszentrum, priority 1978, dated 1983).
Where two headings read alike, the source gives them in different places.

Key:
[1] = system: rat leukemia L 5222; assay: Chemotherapeutic activity against rat Leukemia L5222; type: in vivo, rat (BD IX rats); details: rat, in vivo
Description: Chemotherapeutic activity of methylformylamino-CNU against rat Leukemia L5222 (CNU=chloroethyl-nitroso-urea)
The compound to be tested was solved in Chremophor EL/ethanol/physiological saline and a single dose was administered intraperitoneally into tumor inoculated BD IX rats. The experiment involved an untreated control group and a number of treated groups. The doses used and the effects of the praeterminal treatment are summarized in the following Table from which the cures (animals free of tumor after 120 days) and the increase in life span (ILS, expressed as percentage of survival of the treated test group to the untreated control group) are evident.
Considering the fact that the true measure of the effectiveness of a drug against a neoplastic desease is the ability of the drug to kill the neoplastic cells at dosages that are not toxic to the host animal and that a quantitative evaluation of drug action is usually obtained by using the L1210 leucemia system in mice, it will be realized that in this test the tumor cells are injected into the peritoneal cavity of a mouse which thereafter is treated with the drug to be tested at a very early time after the inoculation of the tumor, i.e. at the first or second day after tumor inoculation. Thus such screening is done under very favourable test conditions for the drug. Contrary thereto the administration of the drug to be tested is performed relatively late in the case of the rat leucemia L5222, i.e. at the 8th day after tumor inoculation. It must, therefore, be taken that at that time tumor cells have colonized the cerebral region, i.e. the meninges, so that cures can only be obtained if the drug has an activity high enough to kill the leucemia cells in the cerebral region in a praeterminal state. Thus by far more severe test conditions are involved when treating rat leucemia L5222 or type Yoshida sarcoma which is a tumor model and which are hard to influence by known drugs.

[2] = system: Yoshida sarcoma; type: in vivo, rat (male Sprague-Dawley rats); details: for M = median survival time: i.p. day 8; for effect on survival time / life expectancy (in words): experiments 1-4, MeCCNU 45, morpholino-CNU 28 (exp. 3 and 5), dimethylmorpholine-CNU 45, piperidino-CNU 15, picolyl-3-CNU 25, picolyl-3-CNU.HCl 25 mg/kg
Description: The chemotherapeutic activity of nitrosoureas was compared in antitumor tests using Yoshida sarcoma ascited cells implanted into the wall of the descending colon in Sprague-Dawley rats.
(§1) Male Sprague-Dawley rats were used in the experiments. Yoshida sarcome in ascites form was maintained in the same strain of rats by serial intraperitoneal injection of 0,5 ml of ascites fluid.
(§2) 3×10^6 cells were injected into the colon wall in a manner known per se. The chemotherapeutic treatment was carried out on the eighth day after implantation of the tumor cells.
(§3) Water-insoluble compounds were dissolved in Cremophor EL/ethanol/physiological saline (20:20:60: vol.%). Water-soluble substances were dissolved in physiological saline. Cremophor EL is a surfactant on the basis of polyethoxylated castor oil. All test compounds were administered introperitoneally. The nitrosoureas were applied at approximately equitoxic doses corresponding to about 80% of the acute LD50 values observed in healthy rats of the same strain over a 28-day observation period.
(§4) Each experiment involved an untreated control group and a varying number of treated groups. Individual survival times were counted as days after tumor inoculation. At the time of death a record of whether an animal was tumor-free or not was made. All animals alive 120 days after tumor inoculation were killed. Animals that according to macroscopic examination had no tumor at the end of the experiment were considered as cured. Since in a number of control rats also no tumors occurred after 120 days the differences in cures between controls and treated animals rather than absolute numbers are reported. Differences in survival were evaluated statistically by individual comparisons between treated rats and controls using a nonparametric log-rank test (Kalbfleisch and Prentice, The statistical analysis of failure time data, Wiley, New York, 1979). Numerical evaluation was performed using a computerized system.

[3] = Mean animal weight / weight gain after tumor transplantation; type: in vivo, rat (Sprague-Dawley rats); details: CP 70 (exp. 1-3), BCNU 25, MeCCNU 45 (exp. 1), picolyl-3-CNU 25, its HCl 25 (exp. 2), morpholino-CNU 28, piperidino-CNU 15 (exp. 3), dimethylmorpholino-CNU 45 mg/kg (exp. 4)
Description: as §1, §2, §3
In all treated animals and at all doses tested the mean weight gain was lower than in the controls. Table 3 gives the mean animal weights measured 50 and 100 days after tumor transplantation in experiments 1 to 5.

[4] = Toxicity in treated tumor-bearing rats (Yoshida sarcoma experiments); type: in vivo, rat (Sprague-Dawley rats); details: at the doses tested
Description: as §1, §2, §3, §4

[5] = system: Yoshida sarcoma; type: in vivo, rat (male Sprague-Dawley rats); details: i.p.
[6] = Water solubility
[7] = Stability of the substance; type: physicochemical
[8] = Experiment 3, CP 70, morpholino-CNU 28, piperidino-CNU 15 mg/kg
[9] = Experiment 3, CP 70, morpholino-CNU 28, piperidino-CNU 15 mg/kg, 30 initial animals each
[10] = Experiment 5, CP 70, picolyl-3-CNU.HCl 25, morpholino-CNU 28, piperidino-CNU 15 mg/kg
[11] = Experiment 5, CP 70, picolyl-3-CNU.HCl 25, morpholino-CNU 28, piperidino-CNU 15 mg/kg, 15 initial animals (picolyl-3-CNU.HCl 14)
[12] = Experiment 5, CP 70, piperidino-CNU 15 mg/kg

Compound: O=NN(CCCl)C(=O)NN1CCCCC1 [Piperidino-CNU, 1-(2-chloroethyl)-1-nitroso-3-(1-piperidine)urea]
- effectiveness in rat leukemia L 5222 (in words) [1]: very good effectiveness
- tumor-free animals at the end of the experiment (in words) ([2]; 120 days): remarkable increase in tumor-free animals
- increase in tumor-free animals (cures) above controls ([2]; 120 days, CP (exp. 1-3), BCNU, MeCCNU 45, dimethylmorpholine-CNU 45, piperidino-CNU 15, picolyl-3-CNU.HCl 25 mg/kg): 21%
- % M (median survival time, untreated control = 100) [2, 8]: > 686%
- D1-120 = difference (%) between tf1-120 of treated and untreated animals [2, 8]: 21%
- D120 = difference (%) between tf120 of treated and untreated animals [2, 8]: 21%
- tf1-120 (%) (tf120 + animals dying of toxicity) [2, 8]: 50%
- tf120 (%) (animals surviving day 120 without tumor) [2, 8]: 50%
- tf1-120, No. (tf120 + animals dying of toxicity) [2, 9]: 15
- tf120, No. (animals surviving day 120 without tumor) [2, 9]: 15
- M = median survival time [2, 8]: > 120 days
- effect on the survival time on retest (in words) ([2]; Experiment 5, cyclophosphamide as a standard): significant increasing effect on the survival time
- % M (median survival time, untreated control = 100) [2, 10]: 160%
- D1-120 = difference (%) between tf1-120 of treated and untreated animals [2, 10]: 13%
- D120 = difference (%) between tf120 of treated and untreated animals [2, 10]: 7%
- tf1-120, No. (tf120 + animals dying of toxicity) [2, 11]: 2
- tf120, No. (animals surviving day 120 without tumor) [2, 11]: 1
- tf1-120 (%) (tf120 + animals dying of toxicity) [2, 12]: 13%
- tf120 (%) (animals surviving day 120 without tumor) [2, 12]: 7%
- M = median survival time [2, 10]: 16 days
- effect on survival time / life expectancy (in words) [2]: significantly increased the survival time
- effect on survival time / life expectancy (in words) ([2]; listed as piperidino-CNU): significant increase in survival time
- chemotherapeutic activity against Yoshida sarcoma in the colon wall (in words) ([2]; i.p.): active
- Mean animal weight on day 50 ([3]; day 50 after tumor transplantation): 340 g
- Mean animal weight on day 100 ([3]; day 100 after tumor transplantation): 410 g
- toxicity (in words) [4]: No toxic effects were seen
- toxicity (in words) ([4]; listed as piperidino-CNU): less toxic than cyclophosphamide
- concentration reached in the distal colon (in words) [5]: reached the distal colon at chemotherapeutically effective concentrations
- water solubility (in words) [6]: water-soluble

Compound: NNC(=O)N(CCCl)N=O [Example 8, 1-(2-chloroethyl)-1-nitroso-3-amino-urea]
- stability (in words) [7]: slightly stable
- stability on storage (in words) ([7]; stored in the deep freezing compartment at -30° C.): stable for a few days
